Test results taken from US9873696B2, “Neprilysin inhibitors” (THERAVANCE BIOPHARMA R&D IP, LLC, priority 2010, dated 2018).

Target: T1, human NEP (Homo sapiens, UniProt P08473)
T1 construct: purchased R&D Systems, Minneapolis, Minn; 1182-ZN
Assay: In vitro enzyme inhibition assay at human NEP (Assay 1)
Type: biochemical
Settings: recombinant enzyme, fluorogenic peptide substrate, 37° C.
Experimental: In Vitro Assays for the Quantitation of Inhibitor Potencies (IC50) at Human and Rat NEP, and Human ACE
The inhibitory activities of compounds at human and rat neprilysin (EC 3.4.24.11; NEP) and human angiotensin converting enzyme (ACE) were determined using in vitro assays as described below.
Recombinant human NEP and recombinant human ACE were obtained commercially (R&D Systems, Minneapolis, Minn., catalog numbers 1182-ZN and 929-ZN, respectively). The fluorogenic peptide substrate Mca-D-Arg-Arg-Leu-Dap-(Dnp)-OH (Medeiros et al. (1997) Braz. J. Med. Biol. Res. 30:1157-62; Anaspec, San Jose, Calif.) and Abz-Phe-Arg-Lys(Dnp)-Pro-OH (Araujo et al. (2000) Biochemistry 39:8519-8525; Bachem, Torrance, Calif.) were used in the NEP and ACE assays respectively.
The assays were performed in 384-well white opaque plates at 37° C. using the fluorogenic peptide substrates at a concentration of 10 μM in Assay Buffer (NEP: 50 mM HEPES, pH 7.5, 100 mM NaCl, 0.01% polyethylene glycol sorbitan monolaurate (Tween-20), 10 μM ZnSO4; ACE: 50 mM HEPES, pH 7.5, 100 mM NaCl, 0.01% Tween-20, 1 μM ZnSO4).
Test compounds were assayed over the range of concentrations from […] to 20 μM. Test compounds were added to the enzymes and incubated for 30 minute at 37° C. prior to initiating the reaction by the addition of substrate. Reactions were terminated after 20 minutes of incubation at 37° C. by the addition of glacial acetic acid to a final concentration of 3.6% (v/v).
Plates were read on a fluorometer with excitation and emission wavelengths set to 320 nm and 405 nm, respectively. Inhibition constants were obtained by nonlinear regression of the data using the equation (GraphPad Software, Inc., San Diego, Calif.): v=v0/[1+(I/K′)] where v is the reaction rate, v0 is the uninhibited reaction rate, I is the inhibitor concentration and K′ is the apparent inhibition constant.
Compounds of the invention were tested in this assay and found to have pKi values at human NEP as follows.

T1 sequence (P08473 whole entry): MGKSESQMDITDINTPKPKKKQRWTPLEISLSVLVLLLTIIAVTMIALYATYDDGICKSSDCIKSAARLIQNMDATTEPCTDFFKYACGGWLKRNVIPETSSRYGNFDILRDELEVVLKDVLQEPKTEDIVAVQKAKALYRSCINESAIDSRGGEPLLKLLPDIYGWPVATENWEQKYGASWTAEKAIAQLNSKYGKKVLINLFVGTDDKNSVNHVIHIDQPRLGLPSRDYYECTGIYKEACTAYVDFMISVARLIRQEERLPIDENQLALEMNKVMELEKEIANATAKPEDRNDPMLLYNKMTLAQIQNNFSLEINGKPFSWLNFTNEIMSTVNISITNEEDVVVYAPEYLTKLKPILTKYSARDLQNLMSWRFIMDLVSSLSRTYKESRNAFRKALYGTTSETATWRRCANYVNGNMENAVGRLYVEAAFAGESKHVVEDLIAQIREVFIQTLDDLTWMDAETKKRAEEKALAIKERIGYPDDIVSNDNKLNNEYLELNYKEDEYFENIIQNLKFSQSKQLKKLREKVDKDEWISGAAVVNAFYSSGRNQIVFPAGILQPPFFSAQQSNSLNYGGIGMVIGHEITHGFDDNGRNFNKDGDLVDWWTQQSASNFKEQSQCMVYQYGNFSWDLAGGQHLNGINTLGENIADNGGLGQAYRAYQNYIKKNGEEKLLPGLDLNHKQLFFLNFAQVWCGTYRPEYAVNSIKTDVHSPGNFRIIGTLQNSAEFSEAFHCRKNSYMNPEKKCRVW

SMILES | Ki [nM]
NS(=O)(=O)CCNC(=O)c1cc(C(=O)NN(Cc2ccc(-c3ccccc3)cc2)C[C@@H](O)C(=O)O)[nH]n1 [Example 2-3, (R)-3-{N-Biphenyl-4-ylmethyl-N′-[5-(2-sulfamoylethylcarbamoyl)-2H-pyrazole-3-carbonyl]hydrazino}-2-hydroxypropionic acid] | 1.26 to 10
COCCN(C)C(=O)c1cc(C(=O)NN(Cc2ccc(-c3ccccc3)cc2)C[C@@H](O)C(=O)O)[nH]n1 [Example 2-5, (R)-3-(N-Biphenyl-4-ylmethyl-N′-{5-[(2-methoxyethyl)methylcarbamoyl]-2H-pyrazole-3-carbonyl}hydrazino)-2-hydroxypropionic acid] | 12.6 to 100
O=C(NN(Cc1ccc(-c2ccccc2)cc1)C[C@@H](O)C(=O)O)c1cc(-c2ccccc2)n[nH]1 [Example 2-16, (R)-3-[N-Biphenyl-4-ylmethyl-N′-(5-phenyl-2H-pyrazole-3-carbonyl)-hydrazino]-2-hydroxypropionic acid] | 12.6 to 100
O=C(NN(Cc1ccc(-c2ccccc2)cc1)C[C@@H](O)C(=O)O)c1cc(C(=O)O)n(Cc2c(F)cc(Cl)cc2F)n1 [Example 2-17, 5-[N′-Biphenyl-4-ylmethyl-N′-((R)-2-carboxy-2-hydroxyethyl)-hydrazinocarbonyl]-2-(4-chloro-2,6-difluorobenzyl)-2H-pyrazole-3-carboxylic acid] | 12.6 to 100
COc1c(F)c(F)c(Cn2nc(C(=O)NN(Cc3ccc(-c4ccccc4)cc3)C[C@@H](O)C(=O)O)cc2C(=O)O)c(F)c1F [Example 2-18, 5-[N′-Biphenyl-4-ylmethyl-N′-((R)-2-carboxy-2-hydroxyethyl)-hydrazinocarbonyl]-2-(2,3,5,6-tetrafluoro-4-methoxybenzyl)-2H-pyrazole-3-carboxylic acid] | 1.26 to 10
O=C(NN(Cc1ccc(-c2ccccc2)cc1)C[C@@H](O)C(=O)O)c1cc(O)no1 [Example 2-19, (R)-3-[N-Biphenyl-4-ylmethyl-N′-(3-hydroxyisoxazole-5-carbonyl)-hydrazino]-2-hydroxypropionic acid] | 1.26 to 10
O=C(NN(Cc1ccc(-c2ccccc2)cc1)C[C@H](O)C(=O)O)c1nnc[nH]1 [Example 2-20, (S)-3-[N-Biphenyl-4-ylmethyl-N′-(4H-[1,2,4]triazole-3-carbonyl)hydrazino]-2-hydroxypropionic acid] | 126 to 1000
O=C(NN(Cc1ccc(-c2ccccc2)cc1)C[C@@H](O)C(=O)O)c1cnn[nH]1 [Example 2-21, (R)-3-[N-Biphenyl-4-ylmethyl-N′-(3H-[1,2,3]triazole-4-carbonyl)hydrazino]-2-hydroxypropionic acid] | 12.6 to 100
O=C(NN(Cc1ccc(-c2ccccc2)cc1)C[C@H](O)C(=O)O)c1cnc2[nH]nnc2c1 [Example 2-22, (S)-3-[N-Biphenyl-4-ylmethyl-N′-(3H-[1,2,3]triazolo[4,5-b]pyridine-6-carbonyl)hydrazino]-2-hydroxypropionic acid] | 126 to 1000
O=C(NN(Cc1ccc(-c2ccccc2)cc1)C[C@@H](O)C(=O)O)c1cc(F)c2[nH]nnc2c1 [Example 2-23, (R)-3-[N-Biphenyl-4-ylmethyl-N′-(7-fluoro-1H-benzotriazole-5-carbonyl)-hydrazino]-2-hydroxypropionic acid] | 126 to 1000
O=C(NN(Cc1ccc(-c2ccccc2)cc1)C[C@H](O)C(=O)O)c1cc(F)c2[nH]nnc2c1 [Example 2-24, (S)-3-[N-Biphenyl-4-ylmethyl-N′-(7-fluoro-1H-benzotriazole-5-carbonyl)-hydrazino]-2-hydroxypropionic acid] | 126 to 1000
O=C(NN(Cc1ccc(-c2ccccc2)cc1)C[C@H](O)C(=O)O)c1cc(Cl)c2[nH]nnc2c1 [Example 2-25, (S)-3-[N-Biphenyl-4-ylmethyl-N′-(7-chloro-1H-benzotriazole-5-carbonyl)-hydrazino]-2-hydroxypropionic acid] | 126 to 1000
O=C(NN(Cc1ccc(-c2cccc(Cl)c2)cc1)C[C@@H](O)C(=O)O)c1cc(O)no1 [Example 3B, (R)-3-[N-(3′-Chlorobiphenyl-4-ylmethyl)-N′-(3-hydroxyisoxazole-5-carbonyl)-hydrazino]-2-hydroxypropionic Acid] | ≤ 1

The next lines start with the values.

Ki [nM] | SMILES
≤ 1 | O=C(O)c1cc(C(=O)NN(Cc2ccc(-c3ccccc3)cc2)C[C@@H](O)C(=O)O)[nH]n1 [Example 1, 5-[N′-Biphenyl-4-ylmethyl-N′-((R)-2-carboxy-2-hydroxyethyl)hydrazinocarbonl]-1H-pyrazole-3-carboxylic Acid]
1.26 to 10 | O=C(O)c1cc(C(=O)NN(Cc2ccc(-c3ccccc3)cc2)C[C@H](O)C(=O)O)[nH]n1 [Example 2-1, 5-[N′-Biphenyl-4-ylmethyl-N′-((S)-2-carboxy-2-hydroxyethyl)-hydrazinocarbonyl]-1H-pyrazole-3-carboxylic acid]
1.26 to 10 | O=C(NCCO)c1cc(C(=O)NN(Cc2ccc(-c3ccccc3)cc2)C[C@@H](O)C(=O)O)[nH]n1 [Example 2-2, (R)-3-{N-Biphenyl-4-ylmethyl-N′-[5-(2-hydroxyethylcarbamoyl)-2H-pyrazole-3-carbonyl]hydrazino}-2-hydroxypropionic acid]
12.6 to 100 | O=C(NC1CC1)c1cc(C(=O)NN(Cc2ccc(-c3ccccc3)cc2)C[C@@H](O)C(=O)O)[nH]n1 [Example 2-4, (R)-3-[N-Biphenyl-4-ylmethyl-N′-(5-cyclopropylcarbamoyl-2H-pyrazole-3-carbonyl)-hydrazino]-2-hydroxypropionic acid]
1.26 to 10 | CN(C)C(=O)c1cc(C(=O)NN(Cc2ccc(-c3ccccc3)cc2)C[C@@H](O)C(=O)O)[nH]n1 [Example 2-6, (R)-3-[N-Biphenyl-4-ylmethyl-N′-(5-dimethylcarbamoyl-2H-pyrazole-3-carbonyl)-hydrazino]-2-hydroxypropionic acid]
12.6 to 100 | CC(C)CN(C)C(=O)c1cc(C(=O)NN(Cc2ccc(-c3ccccc3)cc2)C[C@@H](O)C(=O)O)[nH]n1 [Example 2-7, (R)-3-{N-Biphenyl-4-ylmethyl-N′-[5-(isobutylmethylcarbamoyl)-2H-pyrazole-3-carbonyl]hydrazino}-2-hydroxypropionic acid]
1.26 to 10 | O=C(NN(Cc1ccc(-c2ccccc2)cc1)C[C@@H](O)C(=O)O)c1cc(C(=O)N2CCC2)n[nH]1 [Example 2-8, (R)-3-{N′-[5-(Azetidine-1-carbonyl)-2H-pyrazole-3-carbonyl]-N-biphenyl-4-ylmethylhydrazino}-2-hydroxypropionic acid]
1.26 to 10 | O=C(NN(Cc1ccc(-c2ccccc2)cc1)C[C@@H](O)C(=O)O)c1cc(C(=O)N2CCCC2)n[nH]1 [Example 2-9, (R)-3-{N-Biphenyl-4-ylmethyl-N′-[5-(pyrrolidine-1-carbonyl)-2H-pyrazole-3-carbonyl]hydrazino}-2-hydroxypropionic acid]
1.26 to 10 | O=C(NN(Cc1ccc(-c2ccccc2)cc1)C[C@@H](O)C(=O)O)c1cc(C(=O)N2CCC(O)C2)n[nH]1 (stereo partly drawn) [Example 2-10, (R)-3-{N-Biphenyl-4-ylmethyl-N′-[5-(3-hydroxy-pyrrolidine-1-carbonyl)-2H-pyrazole-3-carbonyl]hydrazino}-2-hydroxypropionic acid]
1.26 to 10 | O=C(NN(Cc1ccc(-c2ccccc2)cc1)C[C@@H](O)C(=O)O)c1cc(C(=O)N2CC[C@@H](O)C2)n[nH]1 [Example 2-11, (R)-3-{N-Biphenyl-4-ylmethyl-N′-[5-((R)-3-hydroxy-pyrrolidine-1-carbonyl)-2H-pyrazole-3-carbonyl]hydrazino}-2-hydroxypropionic acid]
1.26 to 10 | O=C(NN(Cc1ccc(-c2ccccc2)cc1)C[C@@H](O)C(=O)O)c1cc(C(=O)N2CC[C@H](O)C2)n[nH]1 [Example 2-12, (R)-3-{N-Biphenyl-4-ylmethyl-N′-[5-((S)-3-hydroxy-pyrrolidine-1-carbonyl)-2H-pyrazole-3-carbonyl]hydrazino}-2-hydroxypropionic acid]
1.26 to 10 | O=C(NN(Cc1ccc(-c2ccccc2)cc1)C[C@@H](O)C(=O)O)c1cc(C(=O)N2CC=CC2)n[nH]1 [Example 2-13, (R)-3-{N-Biphenyl-4-ylmethyl-N′-[5-(2,5-dihydro-pyrrole-1-carbonyl)-2H-pyrazole-3-carbonyl]hydrazino}-2-hydroxypropionic acid]
12.6 to 100 | O=C(NN(Cc1ccc(-c2ccccc2)cc1)C[C@@H](O)C(=O)O)c1cc(C(=O)N2CCCCC2)n[nH]1 [Example 2-14, (R)-3-{N-Biphenyl-4-ylmethyl-N′-[5-(piperidine-1-carbonyl)-2H-pyrazole-3-carbonyl]hydrazino}-2-hydroxypropionic acid]
1.26 to 10 | O=C(NN(Cc1ccc(-c2ccccc2)cc1)C[C@@H](O)C(=O)O)c1cc(C(=O)N2CCOCC2)n[nH]1 [Example 2-15, (R)-3-{N-Biphenyl-4-ylmethyl-N′-[5-(morpholine-4-carbonyl)-2H-pyrazole-3-carbonyl]hydrazino}-2-hydroxypropionic acid]
